Laboratory results published in patent publication US9737509B1, “Antimicrobial compositions, methods of use, and methods of treatment of infections” (University of South Florida, priority 2015, dated 2017).
In brackets after ≈: the same amount, converted by molar mass.

Columns and labels:
[1] = system: L. donovani axenic amastigotes; test: L. donovani axenic amastigote proliferation, colorimetric assay; format: cell-based, Leishmania donovani; conditions: for activity in the axenic amastigote L. donovani assay (in words): screening / confirmation; for IC50: Leishmania donovani, L. donovani axenic amastigotes
Protocol: As part of an ongoing search for potential treatments for leishmaniasis, a screening campaign against available compounds was conducted using axenic amastigotes of Leishmania donovani, a protozoan that is known to cause visceral leishmaniasis (VL). […] Prior to taking on the development of novel analogs, we sought to synthesize an analog to confirm that the activity was readily reproducible. […] As a byproduct, compound 2a, which arose from the hydrolysis of the product amide to the corresponding carboxylic acid (not shown) was also isolated and evaluated (vide infra).
(§1) With a source of these compounds in hand, their activity against Leishmania donovani cells was evaluated in two different assays. L. donovani axenic amastigotes were generated from promastigotes and maintained in an appropriate medium such that their proliferation could be evaluated using a colorimetric assay. Additionally, macrophages were plated into a 96-well plate and a medium containing L. donovani was added and allowed to infect the macrophage cells. Subsequent addition of the compound to be evaluated was added to the wells prior to incubation and evaluation. Finally, a counterscreen for cytotoxicity was conducted using a J774 murine mouse cell line.

[2] = Counterscreen for cytotoxicity; format: cell-based; conditions: mouse, J774 cells (murine macrophage cell line)
Protocol: as §1

[3] = system: L. donovani infected macrophage cells; test: L. donovani infected macrophage assay; format: cell-based; conditions: Leishmania donovani, macrophages infected with L. donovani
Protocol: as §1

SMILES | IC50 [1] | activity in the axenic amastigote L. donovani assay (in words) [1] | IC50 [2] | IC50 [3]
Cc1nn(-c2ccc(C(N)=O)c(N[C@H]3CC[C@H](O)CC3)c2)c2c1C(=O)CC(C)(C)C2 [Compound 1, reference compound] | – | most active | – | –
COCCCNc1cc(-n2nc(C)c3c2CC(C)(C)CC3=O)ccc1C(N)=O [Compound 2] | 0.646 µg/mL (≈ 1.68 µM) | equally active as 1 | 3.52 µg/mL (≈ 9.16 µM) | 0.879 µg/mL (≈ 2.29 µM)
COCCCNc1cc(-n2nc(C)c3c2CN(Cc2ccccc2)CC3=O)ccc1C(N)=O [Compound 3a] | 2.29 µg/mL (≈ 5.11 µM) | – | > 50 µg/mL | 6.33 µg/mL (≈ 14.1 µM)
COCCCNc1cc(-n2nc(C)c3c2CNCC3=O)ccc1C(N)=O [Compound 3b] | 3.9 µg/mL (≈ 10.9 µM) | – | > 50 µg/mL | > 10 µg/mL
COCCCNc1cc(-n2nc(C)c3c2CN(C(C)=O)CC3=O)ccc1C(N)=O [Compound 3c] | 13.9 µg/mL (≈ 34.8 µM) | – | > 50 µg/mL | 1.06 µg/mL (≈ 2.65 µM)
CCC(=O)N1CC(=O)c2c(C)nn(-c3ccc(C(N)=O)c(NCCCOC)c3)c2C1 [Compound 3d] | 6.42 µg/mL (≈ 15.5 µM) | – | > 50 µg/mL | 3.54 µg/mL (≈ 8.55 µM)
COCCCNc1cc(-n2nc(C)c3c2CN(C(=O)COC)CC3=O)ccc1C(N)=O [Compound 3f] | 4.45 µg/mL (≈ 10.4 µM) | – | > 50 µg/mL | 3.57 µg/mL (≈ 8.31 µM)
COCCCNc1cc(-n2nc(C)c3c2CN(C(=O)c2ccc(C)cc2)CC3=O)ccc1C(N)=O [Compound 3h] | 2.6 µg/mL (≈ 5.48 µM) | – | 26.3 µg/mL (≈ 55.3 µM) | 1.75 µg/mL (≈ 3.69 µM)
COCCCNc1cc(-n2nc(C)c3c2CN(S(C)(=O)=O)CC3=O)ccc1C(N)=O [Compound 3i] | > 20 µg/mL | – | 25.5 µg/mL (≈ 58.6 µM) | > 5.38 µg/mL
COCCCNc1cc(NC2CC(C)(C)Cc3ncccc32)ccc1C(N)=O (centres unmarked) [Compound 6] | 2.55 µg/mL (≈ 6.67 µM) | – | 6.75 µg/mL (≈ 17.6 µM) | 5.38 µg/mL (≈ 14.1 µM)
COCCCNc1cc(-n2nc(C)c3c2CCCC3=O)ccc1C(N)=O [Compound 10] | 2.65 µg/mL (≈ 7.45 µM) | – | 12.6 µg/mL (≈ 35.2 µM) | 0.65 µg/mL (≈ 1.82 µM)

Second part, led by results:

IC50 [1] | SMILES | activity in the axenic amastigote L. donovani assay (in words) [1] | IC50 [2] | IC50 [3]
1.9 µg/mL (≈ 4.45 µM) | COCCCNc1cc(-n2nc(C)c3c2CN(C(=O)C(C)C)CC3=O)ccc1C(N)=O [Compound 3e] | – | 37.3 µg/mL (≈ 87.3 µM) | 3.54 µg/mL (≈ 8.28 µM)
2.99 µg/mL (≈ 6.59 µM) | COCCCNc1cc(-n2nc(C)c3c2CN(C(=O)C2CCCC2)CC3=O)ccc1C(N)=O [Compound 3g] | – | > 50 µg/mL | 1.52 µg/mL (≈ 3.36 µM)
> 20 µg/mL | COCCCNc1cc(-n2nc(C)c3c2CN(C(=O)NCc2ccccc2)CC3=O)ccc1C(N)=O [Compound 3j] | – | > 50 µg/mL | > 10 µg/mL
> 20 µg/mL | COCCCNc1cc(-n2nc(C)c3c2CN(C(N)=O)CC3=O)ccc1C(N)=O [Compound 3k] | – | > 50 µg/mL | > 10 µg/mL
2.42 µg/mL (≈ 7.53 µM) | Cc1nn(-c2ccc3c(N)ncnc3c2)c2c1C(=O)CC(C)(C)C2 [Compound 9c] | – | > 50 µg/mL | 1.33 µg/mL (≈ 4.15 µM)
